In patent US12441718B2, “Selective angiotensin II compounds” (VICORE PHARMA AB, priority 2021, dated 2025):
Values joined by “and” are separate entries in the source; they are usually repeats but may differ in a detail not shown here. Equal values may be shown once. Read-outs that look alike come from different tables or passages of the source.

Assays:
[1] = Metabolic stability in pooled human liver microsomes; type: in vitro ADME; details: pooled human liver microsomes 0.5 mg/mL, 1 μM test compound, 37° C., * rows = mean of two runs; for half-life at 1 μM: human, pooled human liver microsomes
Method: Pooled human liver microsomes in PBS at a concentration of 0.5 mg/mL was incubated with or without 1 mM NADPH for 70 min at 37° C. Test compound was added after 10 minutes to a final concentration of 1 μM. Samples were withdrawn at 0, 5, 15 and 60 minutes and added to test tubes containing acetonitrile, to stop the reaction, and with terfenadine, used as internal standard. After centrifugation at 10 000×g for 5 minutes the supernatant was diluted 1:1 with 1% formic acid. Samples were separated on a reverse phase column and detected by triple quadrupole MSMS (Agilant model 6540). The concentration of the parent compound at the different time points was measured with an external standard curve using terfenadine as internal standard and the initial metabolic rate in the presence or absence of NADPH calculated.

[2] = target: T1, human recombinant AT2 receptor (Homo sapiens, UniProt P50052); experiment: Binding to AT2 receptor, radiometric scintillation assay (Eurofins ITEM26); details: for Ki: seven-point dose-response curve
T1 construct: purchased Eurofins ITEM26 (protocol number)
T1 sequence (P50052 1-363): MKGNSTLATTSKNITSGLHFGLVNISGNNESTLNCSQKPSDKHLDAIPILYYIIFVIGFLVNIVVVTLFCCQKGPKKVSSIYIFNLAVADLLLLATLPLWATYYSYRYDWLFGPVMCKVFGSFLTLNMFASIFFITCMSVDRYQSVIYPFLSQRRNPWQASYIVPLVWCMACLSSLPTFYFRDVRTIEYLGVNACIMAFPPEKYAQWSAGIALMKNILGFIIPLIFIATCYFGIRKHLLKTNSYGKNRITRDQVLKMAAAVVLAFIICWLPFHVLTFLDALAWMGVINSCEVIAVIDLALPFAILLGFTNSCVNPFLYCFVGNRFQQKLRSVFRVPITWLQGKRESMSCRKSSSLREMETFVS

[3] = with 1 mM NADPH, read-out: T1/2, + NaDPH
[4] = without NADPH, read-out: T1/2, no NaDPH
[5] = ligand 125I CGP 42112A, * rows = mean of runs
[6] = test compounds at 1, 10, 100 and 1000 nM, ligand 125I CGP 42112A, * rows = mean of runs, read-out: AT2 GraFit IC50

SMILES | half-life at 1 μM [1, 3] [h] | half-life at 1 μM [1, 4] [h] | also measured
CC(C)Cc1ccc(S(=O)(=O)Nc2ncccn2)c(-c2ccc(Cn3ccnc3C(C)(C)O)cc2)c1 [Example 15, 4′-((2-(2-Hydroxypropan-2-yl)-1H-imidazol-1-yl)methyl)-5-isobutyl-N-(pyrimidin-2-yl)-[1,1′-biphenyl]-2-sulfonamide] | > 1 | > 1 | –
CC(C)Cc1cc(-c2ccc(Cn3ccnc3C(C)(C)C)cc2)c(S(=O)(=O)Nc2ncccn2)s1 [Example 16, 3-(4-((2-(tert-Butyl)-1H-imidazol-1-yl)methyl)phenyl)-5-isobutyl-N-(pyrimidin-2-yl)thiophene-2-sulfonamide] | > 1 | > 1 | –
CC(C)Cc1ccc(S(=O)(=O)Nc2ncccn2)c(-c2ccc(Cn3ccnc3C(C)(C)C)cc2)c1 [Example 17, 4′-((2-(tert-Butyl)-1H-imidazol-1-yl)methyl)-5-isobutyl-N-(pyrimidin-2-yl)-[1,1′-biphenyl]-2-sulfonamide] | > 1 | > 1 | –
COc1cnc(NS(=O)(=O)c2ccc(CC(C)C)cc2-c2ccc(Cn3ccnc3C(C)(C)C)c(F)c2)nc1 [Example 31, 4′-((2-(tert-Butyl)-1H-imidazol-1-yl)methyl)-3′-fluoro-5-isobutyl-N-(5-methoxy-pyrimidin-2-yl)-[1,1′-biphenyl]-2-sulfonamide] | 0.783 | > 1 | T1/2, + NaDPH ([1]; with 1 mM NADPH): 0.583 h; T1/2, + NaDPH ([1]; with 1 mM NADPH, listed as Example 31*): 0.683 h; Ki [2, 5]: 1.21 nM and 1.84 nM and 1.53 nM; IC50 [2, 6]: 2.43 nM and 3.68 nM and 3.06 nM
CC(C)Cc1ccc(S(=O)(=O)Nc2ccsn2)c(-c2ccc(Cn3ccnc3C(C)(C)C)cc2)c1 [Example 33, 4′-((2-(tert-Butyl)-1H-imidazol-1-yl)methyl)-5-isobutyl-N-(isothiazol-3-yl)-[1,1′-biphenyl]-2-sulfonamide] | 0.2 | > 1 | T1/2, + NaDPH ([1]; with 1 mM NADPH): 0.217 h; T1/2, + NaDPH ([1]; with 1 mM NADPH, listed as Example 33*): 0.208 h; Ki [2, 5]: 1.13 nM and 7.18 nM and 4.16 nM; IC50 [2, 6]: 2.25 nM and 14.4 nM and 8.33 nM
CC(C)Cc1ccc(S(=O)(=O)Nc2ncccn2)c(-c2ccc(Cn3ccnc3C(C)C)cc2)c1 [Example 39, 5-Isobutyl-4′-((2-isopropyl-1H-imidazol-1-yl)methyl)-N-(pyrimidin-2-yl)-[1,1′-biphenyl]-2-sulfonamide] | 0.95 | > 1 | –
CCc1nccn1Cc1ccc(-c2cc(CC(C)C)ccc2S(=O)(=O)Nc2ncccn2)cc1 [Example 40, 4′-((2-Ethyl-1H-imidazol-1-yl)methyl)-5-isobutyl-N-(pyrimidin-2-yl)-[1,1′-biphenyl]-2-sulfonamide] | 0.75 | > 1 | –
CC(C)Cc1ccc(S(=O)(=O)Nc2ncccn2)c(-c2ccc(Cn3ccnc3C3CC3)cc2)c1 [Example 41, 4′-((2-Cyclopropyl-1H-imidazol-1-yl)methyl)-5-isobutyl-N-(pyrimidin-2-yl)-[1,1′-biphenyl]-2-sulfonamide] | > 1 | > 1 | –
CC(C)Cc1ccc(S(=O)(=O)Nc2ncccn2)c(-c2ccc(Cn3ccnc3C3CC3)c(F)c2)c1 [Example 42, 4′-((2-Cyclopropyl-1H-imidazol-1-yl)methyl)-3′-fluoro-5-isobutyl-N-(pyrimidin-2-yl)-[1,1′-biphenyl]-2-sulfonamide] | > 1 | > 1 | –
CC(C)Cc1cc(-c2ccc(Cn3ccnc3)c(F)c2)c(S(=O)(=O)Nc2ncccn2)s1 [Example 48, 3-(4-((1H-Imidazol-1-yl)methyl)-3-fluorophenyl)-5-isobutyl-N-(pyrimidin-2-yl)thiophene-2-sulfonamide] | > 1 | > 1 | –
Cc1nccn1Cc1ccc(-c2cc(CC(C)C)ccc2S(=O)(=O)Nc2ncccn2)cc1F [Example 53, Potassium ((3′-fluoro-5-isobutyl-4′-((2-methyl-1H-imidazol-1-yl)methyl)-[1,1′-biphenyl]-2-yl)sulfonyl)(pyrimidin-2-yl)amide] | – | – | IC50 ([2]; AT2 GraFit IC50, value in parentheses after <0.3, value printed in parentheses behind the bound <0.3): 0.25 nM; IC50 [2, 6]: < 0.3 nM
